Measured values taken from patent US12599136B2, “Substituted isophthalic acid diamides and their use as herbicides” (Bayer Aktiengesellschaft, priority 2020, dated 2026).

Columns and labels:
Format in all cases: in vivo
Veronica persica [1] = test: Pre-emergence herbicidal action against VERPE; details: 80 g/ha
Outline: (§1)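 Greenhouse pots of sandy loam held seeds covered with soil, onto which the compound was applied before emergence. An aqueous suspension or emulsion of WP or EC was used at 600 to 800 l/ha with 0.2% wetting agent. Percent damage was judged visually at 3 weeks.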

Amaranthus retroflexus [2] = test: Post-emergence herbicidal action against AMARE; details: visual assessment about 3 weeks after treatment
Outline: (§2)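 A WP or EC formulation diluted in water with 0.2% wetting agent was sprayed at 600 to 800 l/ha onto one-leaf-stage plants grown in sandy loam. About 3 weeks later, action was rated visually in percent, 100% being dead plants.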

Amaranthus retroflexus [3] = test: Pre-emergence herbicidal action against AMARE; details: visual score after 3 weeks vs untreated controls
Outline: as §1

Setaria viridis [4] = test: Post-emergence herbicidal action against SETVI; details: visual assessment about 3 weeks after treatment
Outline: as §2

Abutilon theophrasti [5] = test: Post-emergence herbicidal action against ABUTH
Outline: as §2

Matricaria inodora [6] = test: Pre-emergence herbicidal action against MATIN; details: visual score after 3 weeks vs untreated controls
Outline: as §1

Viola tricolor [7] = test: Post-emergence herbicidal action against VIOTR
Outline: as §2

Echinochloa crus-galli [8] = test: Post-emergence herbicidal action against ECHCG; details: 20 g/ha, visual assessment about 3 weeks after treatment
Outline: as §2

Viola tricolor [9] = test: Pre-emergence herbicidal action against VIOTR
Outline: as §1

Pharbitis purpurea [10] = test: Post-emergence herbicidal action against PHBPU; details: visual assessment about 3 weeks after treatment
Outline: as §2

Alopecurus myosuroides [11] = test: Pre-emergence herbicidal action against ALOMY; details: visual score after 3 weeks vs untreated controls
Outline: as §1

Pharbitis purpurea [12] = test: Pre-emergence herbicidal action against PHBPU; details: 80 g/ha; visual score after 3 weeks vs untreated controls
Text: Seeds of monocotyledonous and dicotyledonous weed plants and crop plants are laid out in sandy loam soil in wood-fiber pots and covered with soil. The compounds of the invention, formulated in the form of wettable powders (WP) or as emulsion concentrates (EC), are then applied to the surface of the covering soil in the form of an aqueous suspension or emulsion at a water application rate equivalent to 600 to 800 l/ha, with addition of 0.2% wetting agent. After the treatment, the pots are placed in a greenhouse and kept under good growth conditions for the trial plants. The damage to the test plants is scored visually after a test period of 3 weeks by comparison with untreated controls (herbicidal activity in percent (%): 100% activity=the plants have died, 0% activity=like control plants). […] The tables below illustrate, in an illustrative manner, the post-emergence herbicidal action of the compounds of the invention, the herbicidal activity being stated in percent.

Abutilon theophrasti [13] = test: Pre-emergence herbicidal action against ABUTH; details: visual score after 3 weeks vs untreated controls
Outline: as §1

Veronica persica [14] = test: Post-emergence herbicidal action against VERPE; details: 20 g/ha, visual assessment about 3 weeks after treatment
Outline: as §2

Setaria viridis [15] = test: Pre-emergence herbicidal action against SETVI; details: 80 g/ha
Outline: as §1

Polygonum convolvulus = test: Pre-emergence herbicidal action against POLCO; details: 80 g/ha
Outline: as §1

Echinochloa crus-galli [16] = test: Pre-emergence herbicidal action against ECHCG; details: 80 g/ha; visual score after 3 weeks vs untreated controls
Outline: as §1

Matricaria inodora [17] = test: Post-emergence herbicidal action against MATIN; details: visual assessment about 3 weeks after treatment
Outline: as §2

Digitaria sanguinalis = test: Pre-emergence herbicidal action against DIGSA
Outline: as §1

Avena fatua [18] = test: Post-emergence herbicidal action against AVEFA; details: 20 g/ha, visual assessment about 3 weeks after treatment
Outline: as §2

Avena fatua [19] = test: Pre-emergence herbicidal action against AVEFA; details: 80 g/ha; visual score after 3 weeks vs untreated controls
Outline: as §1

Alopecurus myosuroides [20] = test: Post-emergence herbicidal action against ALOMY; details: 20 g/ha
Outline: as §2

Compound | Pre-emergence action against VERPE (Veronica persica [1]) | Post-emergence action against AMARE in % (Amaranthus retroflexus [2]; 5 g/ha) | Post-emergence action against AMARE in % (Amaranthus retroflexus [2]; 20 g/ha) | Pre-emergence action against AMARE (Amaranthus retroflexus [3]; 20 g/ha) | Pre-emergence action against AMARE (Amaranthus retroflexus [3]; 80 g/ha) | Post-emergence action against SETVI in % (Setaria viridis [4]; 5 g/ha) | Post-emergence action against SETVI in % (Setaria viridis [4]; 20 g/ha) | Post-emergence action against ABUTH (Abutilon theophrasti [5]; 5 g/ha) | Post-emergence action against ABUTH (Abutilon theophrasti [5]; 20 g/ha) | Pre-emergence action against MATIN (Matricaria inodora [6]; 80 g/ha) | Post-emergence action against VIOTR in % (Viola tricolor [7]; 20 g/ha) | Post-emergence action against ECHCG in % (Echinochloa crus-galli [8]) | Pre-emergence action against VIOTR (Viola tricolor [9]; 80 g/ha) | Post-emergence action against PHBPU in % (Pharbitis purpurea [10]; 20 g/ha) | Pre-emergence action against ALOMY (Alopecurus myosuroides [11]; 80 g/ha) | Pre-emergence action against PHBPU (Pharbitis purpurea [12]) | Pre-emergence action against ABUTH (Abutilon theophrasti [13]; 20 g/ha) | Pre-emergence action against ABUTH (Abutilon theophrasti [13]; 80 g/ha) | Post-emergence action against VERPE in % (Veronica persica [14]) | Pre-emergence action against SETVI (Setaria viridis [15]) | further results
CCN(CC)C(=O)c1c(Br)ccc(C(=O)Nc2nnnn2C)c1Cl [Example 1-200] | 100% | 100% | 100% | 90% | 100% | 80% | 90% | 80% | 90% | 100% | 80% | 100% | 100% | 90% | 100% | 80% | 90% | 100% | 90% | 100% | Post-emergence action against VIOTR in % (Viola tricolor [7]; 5 g/ha): 80%
CCn1nnnc1NC(=O)c1ccc(C(F)(F)F)c(C(=O)N(C)CC(F)F)c1Cl [Example 2-128] | 100% |  |  | 100% | 100% |  | 80% | 80% | 80% | 100% |  | 80% | 100% | 80% | 100% | 80% |  | 100% | 80% | 100% | Pre-emergence action against POLCO (Polygonum convolvulus): 100%; Pre-emergence action against ECHCG (Echinochloa crus-galli [16]): 90%; Post-emergence action against MATIN in % (Matricaria inodora [17]; 5 g/ha): 80%; Post-emergence action against MATIN in % (Matricaria inodora [17]; 20 g/ha): 90%; Pre-emergence action against MATIN (Matricaria inodora [6]; 20 g/ha): 100%; Pre-emergence action against DIGSA (Digitaria sanguinalis; 20 g/ha): 90%; Pre-emergence action against DIGSA (Digitaria sanguinalis; 80 g/ha): 100%; Post-emergence action against AVEFA in % (Avena fatua [18]): 80%; Pre-emergence action against VIOTR (Viola tricolor [9]; 20 g/ha): 100%; Pre-emergence action against AVEFA (Avena fatua [19]): 100%; Post-emergence action against PHBPU in % (Pharbitis purpurea [10]; 5 g/ha): 80%
CCN(CC)C(=O)c1c(Br)ccc(C(=O)Nc2nnnn2CC)c1Cl [Example 2-200] | 90% | 100% | 100% | 100% | 100% | 100% | 100% | 80% | 100;; % | 100% | 100% |  | 100% | 80% | 100% | 90% | 100% | 100% | 90% | 100% | Pre-emergence action against ECHCG (Echinochloa crus-galli [16]): 90%; Post-emergence action against MATIN in % (Matricaria inodora [17]; 20 g/ha): 80;; %; Pre-emergence action against MATIN (Matricaria inodora [6]; 20 g/ha): 90%; Pre-emergence action against VIOTR (Viola tricolor [9]; 20 g/ha): 80%; Pre-emergence action against AVEFA (Avena fatua [19]): 90%; Post-emergence action against ALOMY (Alopecurus myosuroides [20]): 100%; Pre-emergence action against ALOMY (Alopecurus myosuroides [11]; 20 g/ha): 90%
